Experimental findings from patent publication US8614206B2 (Genentech, Inc., priority 2011, dated 2013) are described below.

The structures appear in SMILES notation. Like-named read-outs stand apart in the source and are kept apart here.

Test [1] has as its system BaF3 parental cells. The test is described as follows: In vitro cell proliferation, BaF3 parental line + IL3 (CellTiter-Glo). Format: cell-based, murine. Background: Cellular ATP, detected with luciferase, serves as a proxy for viable cell number.
For test [2], the system named is MM1.S (multiple myeloma) cells. Description: In vitro cell proliferation, MM1.S multiple myeloma cells (CellTiter-Glo, ATP). Format: cell-based. The following applies: read-out: Prolif MM1S ATP (EC50). The essentials: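 BaF3 parental cells (medium with 2 ng/mL mIL-3) seeded at 2 k/well and MM1.S at 10 k/well, then exposed to test compound at 37° C, 5% CO2: BaF3 overnight, MM1.S for 72 hours. Viability read by CellTiter-Glo; IC50/EC50 values calculated.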

Setting [3] is: Mus musculus, BaF3, BaF3 parental cells with IL-3, incubated overnight, read-out: Prolif BaF3 + IL3 (IC50).
The mark [4] stands for this setting: BaF3 parental cells with IL-3, incubated overnight, read-out: Prolif BaF3 + IL3 (IC50).
[5] abbreviates: Mus musculus, BaF3, BaF3 parental cells with IL-3, incubated overnight, read-out: Prolif BaF3 IL3 (IC50).

As a reminder, the IC50 is the concentration that gives 50% inhibition. In general, EC50 refers to the concentration needed to bring the measured effect to its halfway point. Regarding `COC1(C)CCN(c2c(NC(=O)c3nc(-c4c(F)cccc4F)sc3N)cnn2C)CCC1N` (single isomer, unassigned) [Example 502, 5-amino-N-[5-(5-amino-4-methoxy-4-methyl-azepan-1-yl)-1-methyl-pyrazol-4-yl]-2-(2,6-difluorophenyl)thiazole-4-carboxamide], the IC50 in test [1] (setting [3]) was 11.9 µM. The concentration giving a half-maximal response (EC50) in test [2] (72 hours) came to 2.2 µM.
Take `Cn1ncc(NC(=O)c2nc(-c3c(F)cccc3F)sc2N)c1N1CC2CNCC(C1)O2` [Example 354, 5-amino-2-(2,6-difluorophenyl)-N-[1-methyl-5-(9-oxa-3,7-diazabicyclo[3.3.1]nonan-3-yl)pyrazol-4-yl]thiazole-4-carboxamide]: the IC50 in test [1] (setting [3]) is 14.4 µM. Moreover, in test [2] (Homo sapiens, MM1.S, 72 h), the EC50 is 0.168 µM.
Consider `CCOC1CCN(c2c(NC(=O)c3nc(-c4c(F)cccc4F)sc3N)cnn2C)CCC1N` (stereo not drawn) [Example 515, 5-amino-N-[5-(4-amino-5-ethoxy-azepan-1-yl)-1-methyl-pyrazol-4-yl]-2-(2,6-difluorophenyl)thiazole-4-carboxamide], for which the half-inhibitory concentration (IC50) in test [1] (setting [4]) came to 14.7 µM. The EC50 in test [2] (72 hours) was determined as 0.0733 µM.
`Cn1ncc(NC(=O)c2nc(-c3c(F)cccc3F)sc2N)c1N1CC[C@@H](N)C[C@@H](F)C1` [Example 126, 5-amino-N-(5-((3R,5R)-5-amino-3-fluoroazepan-1-yl)-1-methyl-1H-pyrazol-4-yl)-2-(2,6-difluorophenyl)thiazole-4-carboxamide]: in test [1] (setting [5]), the IC50 is greater than 25 µM. In addition, the concentration giving a half-maximal response (EC50) in test [2] (Homo sapiens, MM1.S, 72 h) was 0.11 µM.
`Cn1ncc(NC(=O)c2nc(-c3c(F)cccc3F)sc2N)c1C1CCC(N)CC(C)(O)C1` (single isomer, unassigned) [Example 468, 5-amino-N-[5-(5-amino-3-hydroxy-3-methyl-cycloheptyl)-1-methyl-pyrazol-4-yl]-2-(2,6-difluorophenyl)thiazole-4-carboxamide]: the concentration for half-maximal inhibition (IC50) in test [1] (setting [4]) was greater than 25 µM. Further, in test [2] (72 hours), the EC50 amounted to 0.824 µM.
For the molecule `Cn1ncc(NC(=O)c2nc(-c3ccccc3F)sc2N)c1N1CC[C@@H](N)[C@H](F)CC1` (single isomer, unassigned) [Example 230], the IC50 in test [1] (setting [5]) turned out to be 18.1 µM. In test [2] (Homo sapiens, MM1.S, 72 h), the EC50 amounted to 1.3 µM.
On to `Cn1ncc(NC(=O)c2nc(-c3c(F)cccc3F)sc2N)c1N1CC[C@H](O)[C@@](C)(N)CC1` [Example 424, 5-amino-N-(5-((4S,5S)-4-amino-5-hydroxy-4-methylazepan-1-yl)-1-methyl-1H-pyrazol-4-yl)-2-(2,6-difluorophenyl)thiazole-4-carboxamide], for which the IC50 in test [1] (setting [3]) is greater than 25 µM. In addition, the EC50 in test [2] (Homo sapiens, MM1.S, 72 h) is 6.5 µM.
For `Cn1ncc(NC(=O)c2nc(-c3c(F)cccc3F)sc2N)c1N1CCC2(CC1)CNCCO2` [Example 484, 5-amino-2-(2,6-difluorophenyl)-N-[1-methyl-5-(1-oxa-4,9-diazaspiro[5.5]undecan-9-yl)pyrazol-4-yl]thiazole-4-carboxamide] the same measures were 14.3 µM and 13.7 µM.
In the case of `COC1(C)CC(N)CCN(c2c(NC(=O)c3nc(-c4c(F)cccc4F)sc3N)cnn2C)C1` (single isomer, unassigned) [Example 353, 5-amino-N-[5-(5-amino-3-methoxy-3-methyl-azepan-1-yl)-1-methyl-pyrazol-4-yl]-2-(2,6-difluorophenyl)thiazole-4-carboxamide], the concentration for half-maximal inhibition (IC50) in test [1] (setting [4]) turned out to be 25 µM. In addition, in test [2] (72 hours), the 50% effective concentration (EC50) came to 0.139 µM.
In the case of `CO[C@H]1CC=C(c2c(NC(=O)c3nc(-c4c(F)cccc4F)sc3N)cnn2C)CC[C@@H]1N` [Example 410, 5-amino-N-(5-((4S,5S)-5-amino-4-methoxycyclohept-1-enyl)-1-methyl-1H-pyrazol-4-yl)-2-(2,6-difluorophenyl)thiazole-4-carboxamide], the IC50 in test [1] (setting [3]) amounted to 9.2 µM. Besides, the concentration for a half-maximal effect (EC50) in test [2] (Homo sapiens, MM1.S, 72 h) was 0.693 µM.
On to `Cn1ncc(NC(=O)c2nc(-c3c(F)cccc3F)sc2N)c1N1CCC(N)C(O)CC1` (single isomer, unassigned) [Example 327, 5-amino-N-[5-(4-amino-5-hydroxy-azepan-1-yl)-1-methyl-pyrazol-4-yl]-2-(2,6-difluorophenyl)thiazole-4-carboxamide], for which the IC50 in test [1] (setting [3]) is greater than 25 µM. Moreover, the EC50 in test [2] (72 hours) turned out to be 14.7 µM.
Consider `Cn1ncc(NC(=O)c2nc(-c3c(F)cccc3F)sc2N)c1C1CCC(N)CC(C)(O)C1` (single isomer, unassigned) [Example 456, 5-amino-N-[5-(5-amino-3-hydroxy-3-methyl-cycloheptyl)-1-methyl-pyrazol-4-yl]-2-(2,6-difluorophenyl)thiazole-4-carboxamide], for which the IC50 in test [1] (setting [3]) is greater than 25 µM. The concentration for a half-maximal effect (EC50) in test [2] (72 hours) is greater than 25 µM.
In the case of `CO[C@H]1CCC(c2c(NC(=O)c3nc(-c4ccccc4F)sc3N)cnn2C)CC[C@@H]1N` (single isomer, unassigned) [Example 414], the half-inhibitory concentration (IC50) in test [1] (setting [3]) was greater than 25 µM. Moreover, the EC50 in test [2] (Homo sapiens, MM1.S, 72 h) is 0.0699 µM.
On to `COC1(C)CC(N)CCN(c2c(NC(=O)c3nc(-c4c(F)cccc4F)sc3N)cnn2C)C1` (single isomer, unassigned) [Example 352, 5-amino-N-[5-(5-amino-3-methoxy-3-methyl-azepan-1-yl)-1-methyl-pyrazol-4-yl]-2-(2,6-difluorophenyl)thiazole-4-carboxamide], for which, in test [1] (setting [4]), the half-inhibitory concentration (IC50) was 10.4 µM. For the same molecule, the concentration for a half-maximal effect (EC50) in test [2] (72 hours) is 0.00869 µM.
For the molecule `Cn1ncc(NC(=O)c2nc(-c3c(F)cccc3F)sc2N)c1N1CCNC[C@]2(CCO2)C1` (single isomer, unassigned) [Example 483], the 50% inhibitory concentration (IC50) in test [1] (setting [3]) was greater than 25 µM. The concentration giving a half-maximal response (EC50) in test [2] (Homo sapiens, MM1.S, 72 h) was greater than 25 µM.
`CNC1CCN(c2c(NC(=O)c3nc(-c4c(F)cccc4F)sc3N)cnn2C)CC(F)(F)C1` (stereo not drawn) [Example 408, 5-amino-N-[5-[3,3-difluoro-5-(methylamino)azepan-1-yl]-1-methyl-pyrazol-4-yl]-2-(2,6-difluorophenyl)thiazole-4-carboxamide]: in test [1] (setting [3]), the half-maximal inhibitory concentration (IC50) was determined as 16.5 µM. The EC50 in test [2] (72 hours) turned out to be 2.4 µM.
On to `COC1CCC(c2c(NC(=O)c3nc(-c4ccccc4F)sc3N)cnn2C)CCC1N` (stereo not drawn) [Example 506], for which the IC50 in test [1] (setting [4]) turned out to be 17.1 µM. Also, the half-maximal effective concentration (EC50) in test [2] (72 hours) was found to be 11.7 µM.
Consider `Cn1ncc(NC(=O)c2nc(-c3c(F)cccc3F)sc2N)c1N1CCC(N)CC2(CCO2)C1` (single isomer, unassigned) [Example 452, 5-amino-N-[5-(6-amino-1-oxa-9-azaspiro[3.6]decan-9-yl)-1-methyl-pyrazol-4-yl]-2-(2,6-difluorophenyl)thiazole-4-carboxamide], for which the half-inhibitory concentration (IC50) in test [1] (setting [4]) came out at 24.7 µM. The concentration for a half-maximal effect (EC50) in test [2] (72 hours) came to 0.0793 µM.
Take `Cn1ncc(NC(=O)c2nc(-c3c(F)cccc3F)sc2N)c1N1CCC(N)C(C(F)F)CC1` (single isomer, unassigned) [Example 512, 5-amino-N-[5-[4-amino-5-(difluoromethyl)azepan-1-yl]-1-methyl-pyrazol-4-yl]-2-(2,6-difluorophenyl)thiazole-4-carboxamide]: the half-inhibitory concentration (IC50) in test [1] (setting [4]) was 24.6 µM. Also, the EC50 in test [2] (Homo sapiens, MM1.S, 72 h) came out at 2 µM.
As to `COC1CCC(c2c(NC(=O)c3nc(-c4ccccc4F)sc3N)cnn2C)CCC1N` (stereo not drawn) [Example 504], in test [1] (setting [3]), the half-maximal inhibitory concentration (IC50) was 15.3 µM. In test [2] (Homo sapiens, MM1.S, 72 h), the concentration giving a half-maximal response (EC50) stood at 10.5 µM.
Take `Cn1ncc(NC(=O)c2nc(-c3c(F)cccc3F)sc2N)c1N1CCCC(C)(N)CC1` (single isomer, unassigned) [Example 436, 5-amino-N-[5-(4-amino-4-methyl-azepan-1-yl)-1-methyl-pyrazol-4-yl]-2-(2,6-difluorophenyl)thiazole-4-carboxamide]: the IC50 in test [1] (setting [3]) is 8.3 µM. Further, the EC50 in test [2] (Homo sapiens, MM1.S, 72 h) was 4.9 µM.
Consider `C=C1C[C@@H](N)CCN(c2c(NC(=O)c3nc(-c4c(F)cccc4F)sc3N)cnn2C)C1` [Example 449, 5-amino-N-[5-[(5R)-5-amino-3-methylene-azepan-1-yl]-1-methyl-pyrazol-4-yl]-2-(2,6-difluorophenyl)thiazole-4-carboxamide], for which, in test [1] (setting [3]), the 50% inhibitory concentration (IC50) was 8.5 µM. Moreover, the EC50 in test [2] (Homo sapiens, MM1.S, 72 h) turned out to be 4.2 µM.
For `Cn1ncc(NC(=O)c2nc(-c3c(F)cccc3F)sc2N)c1N1CCCC(C)(N)CC1` (racemic) [Example 411, 5-amino-N-[5-(4-amino-4-methyl-azepan-1-yl)-1-methyl-pyrazol-4-yl]-2-(2,6-difluorophenyl)thiazole-4-carboxamide] the same measures were 17.7 µM and 1.8 µM.
With `Cn1ncc(NC(=O)c2nc(-c3c(F)cccc3F)sc2N)c1N1CC[C@@H](O)[C@H](O)CC1` [Example 490, 5-amino-2-(2,6-difluorophenyl)-N-(5-((4R,5R)-4,5-dihydroxyazepan-1-yl)-1-methyl-1H-pyrazol-4-yl)thiazole-4-carboxamide], in test [1] (setting [3]), the IC50 is greater than 25 µM. The EC50 in test [2] (Homo sapiens, MM1.S, 72 h) is 8.8 µM.
In the case of `COC1(C)CCN(c2c(NC(=O)c3nc(-c4c(F)cccc4F)sc3N)cnn2C)CCC1N` (single isomer, unassigned) [Example 503, 5-amino-N-[5-(5-amino-4-methoxy-4-methyl-azepan-1-yl)-1-methyl-pyrazol-4-yl]-2-(2,6-difluorophenyl)thiazole-4-carboxamide], the IC50 in test [1] (setting [4]) is 11 µM. The concentration giving a half-maximal response (EC50) in test [2] (72 hours) worked out at 0.108 µM.
For `COC1CC(N)CCN(c2c(NC(=O)c3nc(-c4c(F)cccc4F)sc3N)cnn2C)C1` (stereo not drawn) [Example 317, 5-amino-N-[5-(5-amino-3-methoxy-azepan-1-yl)-1-methyl-pyrazol-4-yl]-2-(2,6-difluorophenyl)thiazole-4-carboxamide] the same measures were greater than 25 µM and 0.663 µM.
For `COC1CC(N)CCN(c2c(NC(=O)c3nc(-c4c(F)cccc4F)sc3N)cnn2C)C1` (stereo not drawn) [Example 321, 5-amino-N-[5-(5-amino-3-methoxy-azepan-1-yl)-1-methyl-pyrazol-4-yl]-2-(2,6-difluorophenyl)thiazole-4-carboxamide], in that order: greater than 25 µM and 0.00846 µM.
